Common to all, as to assay type: biochemical
The target in test [1] is FAAH (Homo sapiens (Human), UniProt O00519). Put plainly: In vitro competitive activity-based protein profiling, FAAH (human). To be noted: human proteome; for inhibition at 10 µM: read-out: FAAH % inh. 10 μM (human); for inhibition at 1 µM: read-out: FAAH % inh. 1 μM (human). As for the experimental part: (§1) In Vitro Competitive Activity-Based Protein Profiling.
(§2) Proteomes (mouse brain membrane fraction or cell lysates for mouse assays; human prefrontal cortex or cell membrane fractions for human assays) (50 μL, 1.0 mg/mL total protein concentration) were preincubated with varying concentrations of inhibitors at 37° C. After 30 min, FP—Rh or HT-01 (1.0 μL, 50 μM in DMSO) was added and the mixture was incubated for another 30 min at 37° C. Reactions were quenched with SDS loading buffer (15 μL-4×) and run on SDS-PAGE. Following gel imaging, serine hydrolase activity was determined by measuring fluorescent intensity of gel bands corresponding to MAGL and FAAH using ImageJ 1.43u software.

The target in test [2] is MAGL (Homo sapiens (Human), UniProt Q99685). Put plainly: In vitro competitive activity-based protein profiling, MAGL (human). Particulars: human proteome; for inhibition at 10 µM: read-out: MAGL % inh. 10 μM (human); for inhibition at 1 µM: read-out: MAGL % inh. 1 μM (human). How it is done:
as §1, §2

Test [3] concerns the target FAAH (Mus musculus (Mouse), UniProt O08914). Put plainly: In vitro competitive activity-based protein profiling, FAAH (mouse). To be noted: 1 μM, read-out: FAAH % inh. 1 μM (mouse). The method in brief:
(§3)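 Residual MAGL and FAAH activity quantified from fluorescent gel bands after SDS-PAGE. Before that, FP-Rh or HT-01 probe (50 μM stock) labelled for 30 min at 37 °C, following 30 min inhibitor preincubation. Mouse assays used brain membrane fraction or cell lysates, human used prefrontal cortex or cell membranes, all at 1.0 mg/mL protein.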

For test [4], the target named is MAGL (Mus musculus (Mouse), UniProt O35678). As to the kind of experiment: In vitro competitive activity-based protein profiling, MAGL (mouse). To be noted: 1 μM, read-out: MAGL % inh. 1 μM (mouse). The essentials: as §3
Sequence of MAGL (Mus musculus (Mouse), UniProt O35678) (O35678 whole entry): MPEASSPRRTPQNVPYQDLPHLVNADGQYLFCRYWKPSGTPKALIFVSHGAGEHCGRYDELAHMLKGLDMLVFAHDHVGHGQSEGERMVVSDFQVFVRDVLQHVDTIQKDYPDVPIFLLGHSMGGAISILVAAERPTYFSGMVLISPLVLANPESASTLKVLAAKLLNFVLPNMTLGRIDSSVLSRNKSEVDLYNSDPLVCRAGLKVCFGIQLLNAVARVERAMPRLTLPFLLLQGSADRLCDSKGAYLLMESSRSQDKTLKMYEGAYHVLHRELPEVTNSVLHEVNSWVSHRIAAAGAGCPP

Sequence of MAGL (Homo sapiens (Human), UniProt Q99685) (Q99685 whole entry): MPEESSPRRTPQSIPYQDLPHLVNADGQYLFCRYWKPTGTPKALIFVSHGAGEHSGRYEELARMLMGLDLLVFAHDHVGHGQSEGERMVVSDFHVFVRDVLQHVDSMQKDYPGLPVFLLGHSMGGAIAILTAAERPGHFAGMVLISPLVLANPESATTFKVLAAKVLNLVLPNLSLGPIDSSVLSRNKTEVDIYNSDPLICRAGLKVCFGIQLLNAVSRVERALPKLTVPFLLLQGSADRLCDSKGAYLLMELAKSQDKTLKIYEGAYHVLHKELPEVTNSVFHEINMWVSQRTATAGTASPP
Sequence of FAAH (Mus musculus (Mouse), UniProt O08914) (O08914 whole entry): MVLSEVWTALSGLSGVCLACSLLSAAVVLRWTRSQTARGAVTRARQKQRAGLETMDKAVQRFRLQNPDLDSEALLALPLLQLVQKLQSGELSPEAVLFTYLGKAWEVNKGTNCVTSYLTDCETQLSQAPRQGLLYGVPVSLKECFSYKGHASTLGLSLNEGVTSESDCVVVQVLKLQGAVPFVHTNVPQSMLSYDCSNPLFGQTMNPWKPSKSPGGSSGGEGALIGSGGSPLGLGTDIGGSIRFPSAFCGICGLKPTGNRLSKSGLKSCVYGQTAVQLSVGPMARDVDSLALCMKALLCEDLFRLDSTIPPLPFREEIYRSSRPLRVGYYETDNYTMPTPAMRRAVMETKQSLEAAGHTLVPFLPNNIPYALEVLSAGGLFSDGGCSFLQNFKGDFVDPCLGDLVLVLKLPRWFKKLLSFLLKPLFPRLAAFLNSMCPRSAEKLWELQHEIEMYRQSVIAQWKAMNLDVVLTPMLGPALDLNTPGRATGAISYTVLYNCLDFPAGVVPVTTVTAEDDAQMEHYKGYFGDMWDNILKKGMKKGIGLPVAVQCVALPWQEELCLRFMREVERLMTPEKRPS
Sequence of FAAH (Homo sapiens (Human), UniProt O00519) (O00519 whole entry): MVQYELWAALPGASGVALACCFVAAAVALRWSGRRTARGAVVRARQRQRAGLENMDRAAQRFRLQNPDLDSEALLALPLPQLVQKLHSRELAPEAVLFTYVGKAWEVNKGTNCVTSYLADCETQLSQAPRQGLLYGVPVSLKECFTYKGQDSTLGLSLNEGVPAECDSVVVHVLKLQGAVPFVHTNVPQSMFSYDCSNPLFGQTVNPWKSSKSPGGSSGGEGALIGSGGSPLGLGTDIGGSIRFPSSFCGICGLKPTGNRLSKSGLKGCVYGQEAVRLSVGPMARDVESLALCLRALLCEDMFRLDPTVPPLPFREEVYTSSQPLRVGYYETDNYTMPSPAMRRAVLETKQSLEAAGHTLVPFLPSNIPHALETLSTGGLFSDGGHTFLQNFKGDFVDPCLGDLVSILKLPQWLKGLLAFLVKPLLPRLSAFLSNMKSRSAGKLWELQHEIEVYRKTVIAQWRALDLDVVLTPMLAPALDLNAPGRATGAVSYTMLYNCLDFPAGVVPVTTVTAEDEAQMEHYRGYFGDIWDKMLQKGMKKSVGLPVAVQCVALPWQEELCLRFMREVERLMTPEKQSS

In the case of `CC(=O)N(C)c1cnn(C(=O)N2CCC3(CCN(Cc4ccc(N5CCOCC5)cc4)C3)C2)c1` (stereo not drawn) [Example 3, N-methyl-N-(1-(7-(4-morpholinobenzyl)-2,7-diazaspiro[4.4]nonane-2-carbonyl)-1H-pyrazol-4-yl)acetamide], the inhibition at 10 µM on FAAH [1] and at MAGL [2] was not below 75% throughout. Besides, the values for the inhibition at 1 µM at FAAH [3] and on MAGL [4] were 50 to 75% and 0 to 25%, respectively.
Take `CC(=O)N(C)c1cnn(C(=O)N2CCC3(CCN(Cc4ccc(N5CCOCC5)cc4C)C3)C2)c1` (stereo not drawn) [Example 5, N-methyl-N-(1-(7-(2-methyl-4-morpholinobenzyl)-2,7-diazaspiro[4.4]nonane-2-carbonyl)-1H-pyrazol-4-yl)acetamide]: the inhibition at 10 µM on FAAH [1] and at MAGL [2] was not below 75% each time. For the same compound, the inhibition at 1 µM at FAAH [3] is 50 to 75%; on MAGL [4], 0 to 25%.
Take `CC(=O)N(C)c1cnn(C(=O)N2CC3CN(Cc4ccc(N5CCOCC5)cc4)CC3C2)c1` (stereo not drawn) [Example 15, N-methyl-N-(1-(5-(4-morpholinobenzyl)octahydropyrrolo[3,4-c]pyrrole-2-carbonyl)-1H-pyrazol-4-yl)acetamide]: the inhibition at 10 µM at FAAH [1] and on MAGL [2] was not below 75% each time. For the same compound, the inhibition at 1 µM at FAAH [3] lay in the range of 25 to 50%; on MAGL [4], 0 to 25%.
Turning to `CC(=O)N(C)c1cnn(C(=O)N2CC3(CCN(Cc4ccc(N5CCOCC5)cc4)CC3)C2)c1` [Example 21, N-methyl-N-(1-(7-(4-morpholinobenzyl)-2,7-diazaspiro[3.5]nonane-2-carbonyl)-1H-pyrazol-4-yl)acetamide], the inhibition at 10 µM at FAAH [1] is not below 75%; on MAGL [2], 0 to 25%. Further, the inhibition at 1 µM on FAAH [3] fell in the range of 25 to 50%; on MAGL [4] it was 0 to 25%.
Regarding `CC(=O)N(C)c1cnn(C(=O)N2CCC3(CCN(Cc4cccc(N5CCOCC5)c4)C3)C2)c1` (stereo not drawn) [Example 48, N-methyl-N-(1-(7-(3-morpholinobenzyl)-2,7-diazaspiro[4.4]nonane-2-carbonyl)-1H-pyrazol-4-yl)acetamide], the inhibition at 10 µM at FAAH [1] and at MAGL [2] was not below 75% throughout. The values for the inhibition at 1 µM on FAAH [3] and on MAGL [4] were 25 to 50% and 0 to 25%, respectively.
For the compound `CC(=O)N(C)c1cnn(C(=O)N2CCC3(CCN(Cc4ccccc4F)C3)C2)c1` (stereo not drawn) [Example 52, N-(1-(7-(2-fluorobenzyl)-2,7-diazaspiro[4.4]nonane-2-carbonyl)-1H-pyrazol-4-yl)-N-methylacetamide], the inhibition at 10 µM on FAAH [1] and at MAGL [2] was not below 75% each time. Further, the inhibition at 1 µM at FAAH [3] was not below 75%; on MAGL [4], 0 to 25%.
With `CC(=O)N(C)c1cnn(C(=O)N2CCC3(CCN(Cc4ccccc4C)C3)C2)c1` (stereo not drawn) [Example 54, N-methyl-N-(1-(7-(2-methylbenzyl)-2,7-diazaspiro[4.4]nonane-2-carbonyl)-1H-pyrazol-4-yl)acetamide], the inhibition at 10 µM at FAAH [1] and at MAGL [2] was not below 75% in each case. The values for the inhibition at 1 µM at FAAH [3] and at MAGL [4] were not below 75% and 0 to 25%, respectively.
For the compound `COc1ccccc1CN1CCC2(CCN(C(=O)n3cc(N(C)C(C)=O)cn3)C2)C1` (stereo not drawn) [Example 56, N-(1-(7-(2-methoxybenzyl)-2,7-diazaspiro[4.4]nonane-2-carbonyl)-1H-pyrazol-4-yl)-N-methylacetamide], the inhibition at 10 µM at FAAH [1] and on MAGL [2] was not below 75% each time. The inhibition at 1 µM on FAAH [3] and at MAGL [4] was 0 to 25% each time.
As to `CC(=O)N(C)c1cnn(C(=O)N2CCC3(CCN(Cc4ccccc4N4CCCC4)C3)C2)c1` (stereo not drawn) [Example 60, N-methyl-N-(1-(7-(2-(pyrrolidin-1-yl)benzyl)-2,7-diazaspiro[4.4]nonane-2-carbonyl)-1H-pyrazol-4-yl)acetamide], the inhibition at 10 µM on FAAH [1] and at MAGL [2] was not below 75% throughout. The inhibition at 1 µM on FAAH [3] and on MAGL [4] was 0 to 25% in each case.
With `CC(=O)N(C)c1cnn(C(=O)N2CCC3(CCN(Cc4ccccc4N4CCOCC4)C3)C2)c1` (stereo not drawn) [Example 62, N-methyl-N-(1-(7-(2-morpholinobenzyl)-2,7-diazaspiro[4.4]nonane-2-carbonyl)-1H-pyrazol-4-yl)acetamide], the inhibition at 10 µM on FAAH [1] was not below 75%; at MAGL [2], 25 to 50%. In addition, the inhibition at 1 µM on FAAH [3] and at MAGL [4] was 0 to 25% throughout.
Consider `CC(=O)N(C)c1cnn(C(=O)N2CCC3(CCN(Cc4ccc(F)cc4)C3)C2)c1` (stereo not drawn) [Example 75, N-(1-(7-(4-fluorobenzyl)-2,7-diazaspiro[4.4]nonane-2-carbonyl)-1H-pyrazol-4-yl)-N-methylacetamide], for which the inhibition at 10 µM on FAAH [1] and at MAGL [2] was not below 75% each time. The results for the inhibition at 1 µM on FAAH [3] and on MAGL [4] were 50 to 75% and 0 to 25%, respectively.
For `CC(=O)N(C)c1cnn(C(=O)N2CCC3(CCN(Cc4ccc(C)cc4)C3)C2)c1` (stereo not drawn) [Example 76, N-methyl-N-(1-(7-(4-methylbenzyl)-2,7-diazaspiro[4.4]nonane-2-carbonyl)-1H-pyrazol-4-yl)acetamide], the inhibition at 10 µM on FAAH [1] and on MAGL [2] was not below 75% each time. Also, the inhibition at 1 µM at FAAH [3] was 50 to 75%; at MAGL [4] it was 0 to 25%.
As to `COc1ccc(CN2CCC3(CCN(C(=O)n4cc(N(C)C(C)=O)cn4)C3)C2)cc1` (stereo not drawn) [Example 77, N-(1-(7-(4-methoxybenzyl)-2,7-diazaspiro[4.4]nonane-2-carbonyl)-1H-pyrazol-4-yl)-N-methylacetamide], the inhibition at 10 µM on FAAH [1] and on MAGL [2] was not below 75% in each case. The inhibition at 1 µM lay in the range of 25 to 50% on FAAH [3] and 0 to 25% on MAGL [4].
As for `CS(=O)(=O)Nc1cnn(C(=O)N2CCN(Cc3ccc(-c4cccnn4)cc3C(F)(F)F)CC2)c1` [Example 311, N-(1-(4-(4-(pyridazin-3-yl)-2-(trifluoromethyl)benzyl)piperazine-1-carbonyl)-1H-pyrazol-4-yl)methanesulforamide], the inhibition at 1 µM on FAAH [1] is 50 to 75%; at MAGL [2], not below 75%.
`CS(=O)(=O)Nc1cnn(C(=O)N2CCN(Cc3ccc(-c4ccnnc4)cc3C(F)(F)F)CC2)c1` [Example 312, N-(1-(4-(4-(pyridazin-4-yl)-2-(trifluoromethyl)benzyl)piperazine-1-carbonyl)-1H-pyrazol-4-yl)methanesulfonamide]: the inhibition at 1 µM on FAAH [1] is 25 to 50%; on MAGL [2], not below 75%.
Consider `CC(=O)Nc1cnn(C(=O)N2CC3CN(Cc4cccc(Oc5ccc(Cl)cc5)c4)CC3C2)c1` (stereo not drawn) [Example 316, N-(1-(5-(3-(4-chlorophenoxy)benzyl)octahydropyrrolo [3,4-c]pyrrole-2-carbonyl)-1H-pyrazol-4-yl)acetamide], for which the inhibition at 1 µM at FAAH [1] and at MAGL [2] was not below 75% throughout.
For the compound `C#Cc1ccc(CN2CCN(C(=O)n3cc(NS(C)(=O)=O)cn3)CC2)cc1` [Example 318, N-(1-(4-(4-ethynylbenzyl)piperazine-1-carbonyl)-1H-pyrazol-4-yl)methanesulfonamide], the inhibition at 1 µM is not below 75% on FAAH [1] and 25 to 50% on MAGL [2].

For the origin of these results see patent US10323038B2, “Pyrazole compounds and methods of making and using same” (ABIDE THERAPEUTICS, INC., priority 2015, dated 2019).
